Tests used:
Type in all cases: in vivo
[1] = system: Stellaria; assay: Pre-emergence herbicidal action (Example B1); parameters: key: 1=total damage; 9=no action; conditions: 1 kg/ha, evaluated 4 weeks later, rating scale 1-9 (1=total damage, 9=no action)
Procedure: (§1) Pre-emergence Herbicidal Action Monocot and dicot test plants are sown in standard soil in plastic pots. Immediately after sowing, the test substances are sprayed on as an aqueous suspension [prepared from a wettable powder (Example F3, b) of WO 97/34485)] or as an emulsion [prepared from an emulsion concentrate (Example F1 c) of WO 97/34485)] in an optimal dosage (500 l of water/ha). The test plants are then cultivated in the greenhouse under optimum conditions. The test is evaluated 4 weeks later on a rating scale of 1-9 (1=total damage, 9=no action). Ratings of 1 to 4 (especially 1 to 3) denote good to very good herbicidal action.

[2] = system: Amaranthus; assay: Pre-emergence herbicidal action (Example B1); parameters: key: 1=total damage; 9=no action; conditions: 1 kg/ha, evaluated 4 weeks later, rating scale 1-9 (1=total damage, 9=no action)
Procedure: as §1

[3] = system: Chenopodium; assay: Pre-emergence herbicidal action (Example B1); parameters: key: 1=total damage; 9=no action; conditions: 1 kg/ha, evaluated 4 weeks later, rating scale 1-9 (1=total damage, 9=no action)
Procedure: as §1

[4] = system: Panicum; assay: Pre-emergence herbicidal action (Example B1); parameters: key: 1=total damage; 9=no action; conditions: 1 kg/ha, evaluated 4 weeks later, rating scale 1-9 (1=total damage, 9=no action)
Procedure: as §1

[5] = system: Veronica; assay: Pre-emergence herbicidal action (Example B1); parameters: key: 1=total damage; 9=no action; conditions: 1 kg/ha, evaluated 4 weeks later, rating scale 1-9 (1=total damage, 9=no action)
Procedure: as §1

[6] = system: Digitaria; assay: Pre-emergence herbicidal action (Example B1); parameters: key: 1=total damage; 9=no action; conditions: 1 kg/ha, evaluated 4 weeks later, rating scale 1-9 (1=total damage, 9=no action)
Procedure: as §1

[7] = system: Setaria; assay: Pre-emergence herbicidal action (Example B1); parameters: key: 1=total damage; 9=no action; conditions: 1 kg/ha, evaluated 4 weeks later, rating scale 1-9 (1=total damage, 9=no action)
Procedure: as §1

[8] = system: Stellaria; assay: Post-emergence herbicidal action (Example B2); conditions: 1 kg/ha, post-emergence at 2- to 3-leaf stage, evaluated 2 to 3 weeks later, rating scale 1-9 (1=total damage, 9=no action)
Text: as §1, with “Post-emergence Herbicidal” for “Pre-emergence Herbicidal”, “pots. At the 2- to 3-leaf stage,” for “pots. Immediately after sowing,”, “test plants” for “test substances”, “sprayed with test substances” for “sprayed on”, “evaluated 2 to 3” for “evaluated 4”

[9] = system: Amaranthus; assay: Post-emergence herbicidal action (Example B2); parameters: key: 1=total damage; 9=no action; conditions: 1 kg/ha, post-emergence at 2- to 3-leaf stage, evaluated 2 to 3 weeks later, rating scale 1-9 (1=total damage, 9=no action)
Text: as §1, with “Post-emergence Herbicidal” for “Pre-emergence Herbicidal”, “pots. At the 2- to 3-leaf stage,” for “pots. Immediately after sowing,”, “test plants” for “test substances”, “sprayed with test substances” for “sprayed on”, “evaluated 2 to 3” for “evaluated 4”

[10] = system: Chenopodium; assay: Post-emergence herbicidal action (Example B2); parameters: key: 1=total damage; 9=no action; conditions: 1 kg/ha, post-emergence at 2- to 3-leaf stage, evaluated 2 to 3 weeks later, rating scale 1-9 (1=total damage, 9=no action)
Text: as §1, with “Post-emergence Herbicidal” for “Pre-emergence Herbicidal”, “pots. At the 2- to 3-leaf stage,” for “pots. Immediately after sowing,”, “test plants” for “test substances”, “sprayed with test substances” for “sprayed on”, “evaluated 2 to 3” for “evaluated 4”

Row | SMILES | Preemergence test rating, Stellaria [1] | Preemergence test rating, Amaranthus [2] | Preemergence test rating, Chenopodium [3] | Preemergence test rating, Panicum [4] | Preemergence test rating, Veronica [5] | Preemergence test rating, Digitaria [6] | Preemergence test rating, Setaria [7] | Postemergence test rating, Stellaria [8] | Postemergence test rating, Amaranthus [9] | Postemergence test rating, Chenopodium [10]
1 | COc1ccccc1OCC#Cc1cccc(CC#N)c1 [Compound 1.033] | 1 | 1 | 1 | 2 | 1 | 1 | 2 | 2 | 4 | 2
2 | COc1cc(C#N)ccc1OCC#Cc1ccc(Cl)cc1 [Compound 1.098] | 1 | 1 | 1 | 1 | 1 | 3 | 1 | 2 | 1 | 1
3 | COc1cc(C#N)ccc1OCC#Cc1cccc(Br)c1 [Compound 1.104] | 1 | 1 | 1 | 7 | 1 | 7 | 4 | 3 | 2 | 2
4 | COc1cc(C#N)ccc1OCC#Cc1cccc(CC#N)c1 [Compound 1.109] | 1 | 1 | 1 | 1 | 1 | 1 | 6 | 2 | 1 | 4
5 | COc1cc(CC#N)ccc1OCC#Cc1cccc(CC#N)c1 [Compound 1.168] | 1 | 1 | 2 | 1 | 4 | 3 | 4 |  |  | 
6 | COc1cc([N+](=O)[O-])ccc1OCC#Cc1cccc(CC#N)c1 [Compound 1.198] | 1 | 1 | 1 | 1 | 1 | 1 | 3 | 3 | 1 | 1
7 | COc1cc(C#N)ccc1OCC#Cc1cccc(Cl)c1 [Entry 1.095] |  |  |  |  |  |  |  | 2 | 1 | 2
